From paper PMC4265539, “Inhibition of Neutrophil Collagenase/MMP-8 and Gelatinase B/MMP-9 and Protection against Endotoxin Shock” (Journal of Immunology Research, 2014)
Read-outs that look alike come from different tables or passages of the source. Non-standard residues stand in square brackets, D forms with d. Residues, ends and D or L forms follow the SMILES beside them. No end group written: not given here. Bip = N[C@@H](Cc1ccc(-c2ccccc2)cc1)C(=O)O; d3Pal = N[C@H](Cc1cccnc1)C(=O)O

Assays:
[1] = tested on: Swiss mice, LPS endotoxin shock; assay: Endotoxin shock mouse model, survival after LPS challenge; type: in vivo
Experimental: (§1) The protective effect of all inhibitors was evaluated in a similar way. P2 (90 mg/kg P2) was used at a similar molar concentration as Regasepin 2. The effect of lower dosages of P2 (30 mg/kg and 10 mg/kg) was also evaluated in parallel experiments. The details of the animal experiments, including grouping of mice, number of mice in each group, reagent concentrations, and ways of administration, are shown in Table 2. The peptides were administered intravenously 5 minutes after LPS injection.
The protective effects via intravenous injection were evaluated in groups of 6 mice, intravenously injected with 100 μL (7 mg/mL; 35 mg/kg) Regasepin 2 or Inhibitor 2 (35 mg/kg) 5 minutes after intravenous injection of LPS (200 μg per mouse). The numbers of surviving mice were recorded regularly after LPS administration. Kaplan-Meier survival curves were generated. P values were calculated compared with the survival rates of the negative control group. The experiments were performed two times.
Regasepin 2 via intravenous injection (35 mg/kg) was used as a positive control peptide. 200 μL P2 (15 mg/mL) was administered intraperitoneally (150 mg/kg) 30, 60, or 90 minutes before intravenous LPS challenge (200 μg per mouse) to evaluate the effect of P2 via this administration route. The protective effects of a single intravenous injection of P2 (10 mg/kg) and two times intravenous administration of P2 (10 mg/kg) with 2 hours interval were also included and compared.
Results were represented as mean ± SD. Statistical significance was assessed using statistics software SPSS13.0. Two-way analysis of variance (ANOVA) was used to test for differences between groups. For all statistical comparisons, positive groups were compared with negative controls, and ^* P < 0.05 or ^** P < 0.01 were considered statistically significant.

[2] = mouse, in vivo, ip, 150 mg/kg
Experimental: (§2) The concentration of P2-BSA that was used to coat the plates and the reagent concentration of the P2-specific polyclonal antibody were optimized by two-dimensional serial dilution tests. 96-well microtiter plates were coated with a solution of 6 μg/mL P2-BSA in 0.05 M sodium bicarbonate (pH 9.6) and the plate was kept overnight at 4°C. After washing the plate three times, the plate was blocked with 0.1 M PBS (pH 7.4) containing 10% (V/V) skim milk at 37°C for 1.5 h. To perform the competition ELISA between P2 and the immobilized P2-BSA, P2-specific antibody (1000 times serum dilution) was added to the wells in the presence of plasma or standard samples at 37°C for 1.5 h. After washing the plate three times, 100 μL of horseradish peroxidase-conjugated goat anti-rabbit IgG (1 : 2000) was added and incubated for 1 h at 37°C. After washing three times, the tetramethylbenzidine (TMB) substrate (100 μL/well) was added and the reaction was executed for 15 min. The reactions were stopped with 2 M sulfuric acid (50 μL/well). The absorbance of each well at 450 nm was detected with an automated ELISA reader. The calibration curve was expressed according to the fact that 1-B/B0 are linear with log C (where B0 is the OD value in the absence of P2 in plasma, B is the OD value at serial concentrations of P2 in plasma, and C is the P2 concentration, resp.). The indirect ELISA procedures were conducted in duplicate with a set of standard concentrations of P2 in diluted mouse serum in order to determine the mathematical fitting equation and linear detection range.
(§3) Adult female Swiss mice, 5 animals per group, were used for the pharmacokinetic studies. P2 (90 mg/kg, 30 mg/kg, or 10 mg/kg) was dissolved in sterile 0.9% saline and was administered intravenously. Blood samples were collected through the canthus at 0, 3, 6, 9, 12, 15, and 30 min. For intraperitoneal injection of P2, 150 mg/kg P2 dissolved in 0.9% saline was administered and blood samples were collected through the canthus at 0, 13, 20, 40, 68, 100, 127, and 168 minutes.
(§4) Blood samples were immediately centrifuged (12000 rpm for 30 seconds), and the supernatants were taken and diluted 10, 30, or 300 times with PBS, prewarmed at 80°C in a water bath. The diluted samples were kept at 80°C for another 30 min to remove enzyme activity of the plasma components. Samples were diluted with prewarmed PBS so that the final concentration of P2 was within the linear range of the standard line. After another centrifugation (12000 rpm for 2 min), the diluted samples were analyzed by ELISA to measure the plasma P2 concentrations.

[3] = mouse, in vivo
Experimental: as §2, §3, §4

MMP-8 = details: cited from earlier work
Text: Table 1 Peptide sequences and their IC50 values in μM against target enzymes. | column: MMP-8

MMP-9 = details: cited from earlier work
Text: Table 1 Peptide sequences and their IC50 values in μM against target enzymes. | column: MMP-9

TACE = details: cited from earlier work
Text: Table 1 Peptide sequences and their IC50 values in μM against target enzymes. | column: TACE

[4] = rat; cited from earlier work
Text: The pharmacokinetics of P2 by intraperitoneal injection was also investigated.

[5] = tested on: Swiss mice, LPS endotoxin shock; details: 100 μL (7 mg/mL), 35 mg/kg iv 5 minutes after iv LPS, ref [9]; cited from earlier work
Experimental: as §1, with “ea ...” for “each group, reagent concentrations, and ways of administration, are shown in Table 2. The peptides were administered intravenously 5 minutes after LPS injection.”

With CC[C@H](C)[C@H](NC(=O)CNC(=O)CNC(=O)CNC(=O)CNC(=O)[C@H](CCC(=O)O)NC(=O)CNC(=O)[C@H](CCCNC(=N)N)NC(=O)[C@H](Cc1ccc(-c2ccccc2)cc1)NC(=O)[C@@H](CS)NC(=O)[C@@H](Cc1cccnc1)NC(=O)[C@@H]1CCCN1)C(=O)N[C@H](C(=O)N[C@@H](CCCNC(=N)N)C(=O)N[C@@H](CCCNC(=N)N)C(=O)N[C@@H](C)C(=O)N[C@@H](CC(=O)O)C(=O)N[C@@H](CCCNC(=N)N)C(=O)N[C@@H](C)C(=O)N[C@@H](C)C(=O)N[C@H](C(=O)N1CCC[C@H]1C(=O)O)C(C)C)C(C)C [P2] (H-P[d3Pal][dC][Bip]RGEGGGGIVRRADRAAVP-OH; N-terminus and C-terminus assumed) the “Survival after two injections (G3) versus single injection (G2)” value ([1]; 10 mg/kg iv 5 minutes after LPS iv and again 2 hours later, n = 12, Figure 4(a) G3) was “less mice survived”, the “Survival versus LPS-treated control group” value ([1]; single 10 mg/kg iv 5 minutes after LPS iv, n = 12, Figure 4(a) G2) was “significant difference with the LPS-treated control group” and the level at time molar at 100 min [2] was 1540 nM. For the same molecule, the “Time at which the peak plasma level was reached” value ([3]; ip, 150 mg/kg) was no more than 13 min, the “Time an effective P2 concentration (above 2 μM) remained in plasma” value ([3]; iv, 10 mg/kg) was 6 min and the “Time the effective plasma concentration of P2 lasted” value ([3]; iv, 90 mg/kg) was “less than 30 minutes”. The IC50 (MMP-8; ref [10]) was 350 nM, the IC50 (MMP-9; ref [10]) was 1360 nM and the IC50 (TACE; ref [10]) was 1.95 µM.
For IVRRADRAAVP [ES-2], the IC50 (MMP-8; ref [10]) is listed as greater than 500000 nM, the IC50 (MMP-9; ref [10]) is listed as greater than 500000 nM and the IC50 (TACE; ref [10]) is listed as greater than 500 µM.
In the case of IVRRADRAAVPGGGGRGD [HM-3], the in vivo half-life [4] is given as 27 min.
For “PRC[Bip]CGE (cysteine pairing not given here) [Regasepin 1]”, the IC50 (MMP-8; ref [8]) is given as 3000 nM, the IC50 (MMP-9; ref [8]) is given as 1500 nM and the IC50 (TACE; ref [8]) is given as 5 µM.
For “Pro-(D-Pyr)-(D-Cys)-Bip-Arg-Gly-Glu [Inhibitor 2]”, the IC50 (MMP-8; ref [11]) is listed as 800 nM, the IC50 (MMP-9; ref [11]) is listed as 2750 nM and the IC50 (TACE; ref [11]) is listed as 5.5 µM.
For “Pro-Pyr-Cys-Bip-Arg-Gly-Glu [Regasepin 2]”, the “Protective effect (survival), positive control” value ([1]; 35 mg/kg iv 5 minutes after LPS iv, n = 12, Figures 4(b)-4(d)) is listed as “significant protective effect”, the IC50 (MMP-8; ref [9]) is listed as 10000 nM and the IC50 (MMP-9; ref [9]) is listed as 800 nM. For the same molecule, the IC50 (TACE; ref [9]) was 1.5 µM and the “Protection from endotoxin shock” value [5] was “protect mice from endotoxin shock”.
